Values quoted from earlier work in patent EP4691460A1, “RAMELTEON SUBLINGUAL FILM AND PREPARATION METHOD THEREFOR” (Hangzhou Chengbang Pharmaceutical Technology Co., Ltd, priority 2023, dated 2024).

Tests used:
[1] = target: MT1 receptors (Homo sapiens, UniProt P48039); settings: fraction of the affinity of ramelteon
[2] = target: T1, MT2 receptors (Homo sapiens, UniProt P49286); settings: fraction of the affinity of ramelteon
T1 sequence (P49286 1-362): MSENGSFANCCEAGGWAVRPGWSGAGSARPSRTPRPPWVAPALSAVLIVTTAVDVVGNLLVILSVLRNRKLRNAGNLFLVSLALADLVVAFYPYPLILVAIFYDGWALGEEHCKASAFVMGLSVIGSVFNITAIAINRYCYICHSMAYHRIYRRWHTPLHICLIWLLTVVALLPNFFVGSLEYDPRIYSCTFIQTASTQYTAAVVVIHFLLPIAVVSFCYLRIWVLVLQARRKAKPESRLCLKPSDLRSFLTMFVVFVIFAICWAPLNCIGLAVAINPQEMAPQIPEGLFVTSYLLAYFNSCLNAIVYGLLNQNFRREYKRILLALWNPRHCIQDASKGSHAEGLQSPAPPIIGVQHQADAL

[3] = oral administration, clinical data
[4] = taken with a high-fat meal versus fasting

Chain of MT1 receptors (P48039 whole entry): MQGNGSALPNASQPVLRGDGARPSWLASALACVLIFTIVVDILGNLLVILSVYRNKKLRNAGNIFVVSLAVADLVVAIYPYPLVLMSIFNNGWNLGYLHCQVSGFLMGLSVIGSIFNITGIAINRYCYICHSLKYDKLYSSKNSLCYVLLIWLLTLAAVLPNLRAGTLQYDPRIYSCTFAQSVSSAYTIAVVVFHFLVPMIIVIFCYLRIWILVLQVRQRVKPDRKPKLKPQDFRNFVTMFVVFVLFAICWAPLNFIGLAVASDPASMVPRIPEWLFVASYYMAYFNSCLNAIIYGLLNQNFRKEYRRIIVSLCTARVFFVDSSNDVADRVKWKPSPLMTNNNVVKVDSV

CCC(=O)NCC[C@@H]1CCc2ccc3c(c21)CCO3 [ramelteon, Ramelteon]
drug absorbed after oral administration [3]: At least 84%
median time to peak drug concentration [3]: approximately 0.75 (0.5-1.5) h
absolute bioavailability (oral administration, first pass effect): 1.4%
AUC higher than that of fasting administration (taken with a high-fat meal): 31%
Cmax reduction [4]: 22%
median Tmax delay [4]: 45 min

CC(O)C(=O)NCC[C@@H]1CCc2ccc3c(c21)CCO3 (stereo partly drawn) [M-II]
affinity with MT1 receptors relative to the metabolic substrate [1]: about one fifth
affinity with MT2 receptors relative to the metabolic substrate [2]: one tenth
total amount relative to the metabolic substrate (main metabolite versus ramelteon): 20-100 times
